Laboratory results: patent US5153194A, “Thienocycloheptapyridazine compounds and their pharmaceutical use” (Yoshitomi Pharmaceutical Industries, Ltd., priority 1988, dated 1992)

Tests used:
[1] = tested on: tonic convulsion induced by (+) bicuculline; assay: Anti-bicuculline action (bicuculline-induced tonic convulsion); format: in vivo, mouse (male ddY); conditions: Mus musculus; oral, 1 hour before (+) bicuculline 0.6 mg/kg i.v.; tonic convulsion within 5 minutes
Description: The anti-bicuculline action test was carried out in accordance with the method described in Life Science, vol. 21, 1779 (1977).
Male ddY mice weighing 20-28 g, 7-14 animals per group, were used. One hour after the oral administration of the test compounds, (+) bicuculline was intravenously administered at the dosage of 0.6 mg/kg, and 50% effective concentration (ED50) was estimated by examining whether tonic convulsion within 5 minutes was caused or not.

[2] = biological target: benzodiazepine (BZP) receptors; assay: Displacement ability for benzodiazepine (displacement of tritiated diazepam); format: binding, rat (male Wistar; conditions: displacement of tritiated diazepam (2 nM), rat cerebral cortex synaptosomes, 0° C., 20 minutes, pH 7.4; read-out: Affinity to BZP Receptors, Ki
Description: The experiment for specific affinity to benzodiazepine receptors was carried out in accordance with the method described in Life Science, vol. 20, 2101 (1977).
The crude cynaptosome fraction was isolated from the cerebral cortex of male Wistar rats aged 9-10 weeks, and was suspended in 50 mM Tris-hydrochloric acid buffer solution (pH 7.4) containing 120 mM sodium chloride and 5 mM potassium chloride. These suspensions were used for the experiment.
The test compounds in several different concentrations and tritiated diazepam (in final concentration of 2 nM) were added to the synaptosome suspensions, and the mixtures were incubated at 0° C. for 20 minutes. These suspensions were filtered with Whatman GF/B glassfiber filters. After the filters were washed with the above-mentioned buffer solution, the radioactivity left on the filters was measured with the use of a liquid scintillation counter.
Specific binding was determined by subtracting binding in the presence of 10^-6 M unlabelled diazepam from total binding.
According to the foregoing experimental method, the binding force to benzodiazepine receptors of the compound of the present invention is evaluated from its displacement ability for tritiated diazepam at its binding site, which is represented by Ki value (nM).

[3] = tested on: amnesia-induced mice (electroconvulsive shock); assay: Action on experimental amnesia (ECS-induced amnesia, step-through passive avoidance); format: in vivo, mouse (male ddY); conditions: 2.5 mg/kg (i.p.) or more, 30 minutes before acquisition trial; retention test 24 hours after
Description: Twenty male ddY mice were used per group to investigate the action of the test compounds on learning and memory ability of amnesia-induced mice by observing a step-through passive avoidance reflex. Amnesia-induced animals were prepared by applying electroconvulsive shock (ECS) soon after the acquisition trial and the retention test was carried out 24 hours after the acquisition trial. Test compounds were administered intraperitoneally (i.p.) 30 minutes before the acquisition trial.

ddY mice = assay: Acute toxicity; format: in vivo, mouse (male ddY); conditions: 5 days
From the text: Five male ddY mice were used per group.

With `Cc1cc2c(s1)CCCC1CC(=O)N(c3ccc(Cl)cc3)N=C21` (stereo not shown) [Example 1, 2-(4-chlorophenyl)-9-methyl-2,4,4a,5,6,7-hexahydro-3H-thieno[2',3':6,7]cyclohepta[1,2-c]pyridazin-3-one] the ED50 [1] was 8.1 mg/kg and the Ki [2] was 4.8 nM.

For `COc1ccc(N2N=C3c4cc(C)sc4CCCC3CC2=O)cc1` (stereo not shown) [Example 4, 2-(4-methoxyphenyl)-9-methyl-2,4,4a,5,6,7-hexahydro-3H-thieno[2',3':6,7]cyclohepta[1,2-c]pyridazin-3-one], the “latency time in the trial of the retention test” value [3] was “significantly prolonged the latency time”, the “survival, acute toxicity, intraperitoneal” value (ddY mice; 300 mg/kg i.p., five mice) was “all mice survived for 5 days” and the “survival, acute toxicity, oral” value (ddY mice; 1000 mg/kg oral) was “survived for 5 days”. It also gave a Ki [2] of 1.1 nM.

Work on `Cc1cc2c(s1)CCCc1cc(=O)n(-c3ccc(Cl)cc3)nc1-2` [Example 5, 2-(4-chlorophenyl)-2,5,6,7-tetrahydro-9-methyl-3H-thieno[2',3':6,7]cyclohepta[1,2-c]pyridazin-3-one] yielded an ED50 [1] of 9.8 mg/kg.
